Experimental data from ChEMBL document CHEMBL1201862, “PubChem BioAssay data set” (2004).
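Values below derive from 48-hour exposures of cells grown in 96-well plates, with endpoints linearly interpolated between the two concentrations bracketing the appropriate inhibition level. GI50: concentration for 50% inhibition of growth.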 Activity calls are given as the source filed them. No stated cut-off is given here; in the data, active = GI50 up to about 1.1 µM and inactive = higher.

What was measured:
Experiment in all cases: NCI anticancer screen, dose series, 48 h
XF498 = system: XF498
RXF 393 = system: RXF 393
786-0 = system: 786-0
K562 = system: K562
OVCAR-3 = system: OVCAR-3
SF-268 = system: SF-268
SN12C = system: SN12C
HL-60 = system: HL-60
NCI-H226 = system: NCI-H226
SK-MEL-2 = system: SK-MEL-2
SF-539 = system: SF-539
OVCAR-8 = system: OVCAR-8
SK-MEL-5 = system: SK-MEL-5
HOP-92 = system: HOP-92
HOP-62 = system: HOP-62
UACC-257 = system: UACC-257
OVCAR-5 = system: OVCAR-5
OVCAR-4 = system: OVCAR-4
Hs-578T = system: Hs-578T
BT-549 = system: BT-549

Measured: GI50

C=CCN(N=O)C(=O)NCCCC(NC(C)=O)C(=O)NCc1ccccc1 (stereo not given)
inactive: XF498 > 100 µM | RXF 393 > 100 µM | 786-0 > 100 µM | K562 > 100 µM | OVCAR-3 > 100 µM | SF-268 > 100 µM | SN12C > 100 µM | HL-60 > 100 µM | NCI-H226 > 100 µM | SK-MEL-2 > 100 µM | SF-539 98.2 µM | OVCAR-8 > 100 µM | SK-MEL-5 > 100 µM | HOP-92 61.5 µM | HOP-62 > 100 µM | UACC-257 > 100 µM | OVCAR-5 > 100 µM | OVCAR-4 > 100 µM

C=C1C(=O)C23C(O)CC4C(C)(C)CCC(O)C4(C)C2CC(OC(C)=O)C1[C@H]3O (stereo not given in full)
inactive: XF498 1.91 µM | RXF 393 2.62 µM | 786-0 2.4 µM | K562 1.84 µM | OVCAR-3 6.18 µM | SF-268 4.49 µM | SN12C 3.15 µM | HL-60 1.26 µM | NCI-H226 9.31 µM | Hs-578T 24 µM | SK-MEL-2 2.55 µM | SF-539 3.5 µM | OVCAR-8 1.22 µM | HOP-92 2.26 µM | HOP-62 14.7 µM | UACC-257 3.28 µM | OVCAR-5 9.75 µM

Nc1n[nH]c(N)n1 [GUANAZOLE]
inactive: XF498 237 µM | BT-549 > 6490 µM | RXF 393 6820 µM | 786-0 2580 µM | K562 7110 µM | OVCAR-3 > 10000 µM | SF-268 5740 µM | SN12C 4930 µM | HL-60 1420 µM | NCI-H226 5860 µM | Hs-578T > 10000 µM | SK-MEL-2 > 9790 µM | SF-539 2510 µM | OVCAR-8 3400 µM | SK-MEL-5 3940 µM | HOP-92 5190 µM | HOP-62 2360 µM | UACC-257 6430 µM | OVCAR-5 4980 µM | OVCAR-4 > 9120 µM
